We go through nine compounds from patent US20260317332A1, “BICYCLIC HETEROCYCLE COMPOUNDS FOR THE TREATMENT OF CANCER” (Hoffmann-La Roche Inc., priority 2023, published 2026).

Experiment [1] concerns the target T1, CD73 (Homo sapiens, UniProt P21589).
T1 sequence (P21589 27-574): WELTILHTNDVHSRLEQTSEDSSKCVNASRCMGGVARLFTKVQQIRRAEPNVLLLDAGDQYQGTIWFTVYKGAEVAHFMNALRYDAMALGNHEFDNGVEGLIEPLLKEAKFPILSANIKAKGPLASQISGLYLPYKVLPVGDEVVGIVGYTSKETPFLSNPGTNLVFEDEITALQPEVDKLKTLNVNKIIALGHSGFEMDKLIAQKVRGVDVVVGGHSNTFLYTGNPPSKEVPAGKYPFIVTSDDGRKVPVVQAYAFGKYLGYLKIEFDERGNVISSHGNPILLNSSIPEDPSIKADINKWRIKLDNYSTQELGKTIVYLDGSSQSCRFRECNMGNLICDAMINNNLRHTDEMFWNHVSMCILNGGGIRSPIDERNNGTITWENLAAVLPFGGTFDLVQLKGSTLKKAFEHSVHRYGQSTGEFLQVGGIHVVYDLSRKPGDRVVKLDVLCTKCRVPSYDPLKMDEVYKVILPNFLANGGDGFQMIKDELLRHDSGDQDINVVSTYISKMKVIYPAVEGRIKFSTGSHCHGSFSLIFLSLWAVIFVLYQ
Description: Human CD73 Biochemical Assay. Conditions: 0.05 nM recombinant CD73; AMP 5.56 μM final; 10 min at room temperature; LC/MS adenosine readout; read-out: Enzymatic IC50 against human CD73. On the procedure: The purpose of this assay is to identify and characterize inhibitors of human CD73 enzymatic activity. Compound serial dilution (1:3) was prepared with Echo 555 liquid handler (Labcyte) into the corresponding wells of a 384-well plate. 10 μL of enzyme working solution (containing 0.05 nM recombinant CD73 protein, 10 mM Tris pH 7.5, 100 mM NaCl, 0.01% BSA, 0.2 mM Octyl glucoside and 1 mM NaH2PO4) was added to the assay plate and incubated with compounds for 15 minutes at room temperature. After adding 15 μL of AMP working solution (Containing 10 mM Tris pH 7.5, 100 mM NaCl, 0.01% BSA, 0.2 mM Octyl glucoside, with 5.56 μM of AMP final concentration) and incubate for 10 min at room temperature. Stop the reaction by adding 75 μL of stop solution (5% TCA in H2O containing 250 nM 13C5-adenosine) to each well for 10 min incubation. After centrifugation, 75 μL of the mixture was transferred to a new 384-well plate for LC/MS analysis.
Samples from the 384-well plates, were loaded onto an autosampler deck, then injected with ADDA-LC-MS/MS. The aqueous mobile phase is 0.1% formic acid in water. The organic mobile phase is 0.1% formic acid in acetonitrile. Flow rate is maintained at 0.8 mL/minute using Shimadzu pumps. The column is ACE 5 Phenyl, 50×2.1 mm. The analysis was performed on a SCIEX triple quadrupole mass spectrometer operating in positive ion mode. The effluent from the HPLC column was directly introduced into the electrospray ionization (ESI). Multiple reaction monitoring (MRM) is used to determine analyte and internal standard (IS) responses. The MRM for adenosine is 268.1/136.1, for 13C5-Adenosine (IS) is 273.2/136.2. The data is calculated using the peak area ratio (PAR) semi-quantitative method.

Experiment [2] concerns CD4+ T cells. Nature of the experiment: T Cell Proliferation Assay: CD4+ T cell proliferation. Format: cell-based. Conditions: Homo sapiens, high AMP condition (200 μM AMP, 5 μM EHNA), CD3/CD28 beads, 72 hours, read-out: CD4+ T cell proliferation EC50 (rescue of proliferation). On the procedure: (§1) The purpose of this assay is to characterize the potency of inhibitors of CD73 in rescuing adenosine-mediated inhibition of T cell proliferation. CD4+ or CD8+ T cells were isolated from peripheral blood mononuclear cells (PBMCs, HemaCare) by immunomagnetic negative selection using EasySep™ Isolation Kit (STEMCELL Technologies) following the supplier's protocol. Pan T cells were pelleted by centrifugation at 300 gravitational force (g) for 5 minutes at room temperature and re-suspended in PBS. CellTrace™ Violet staining solution (Invitrogen) was added at 1:5,000 and incubated at 37° C. for 20 minutes, protected from light. Complete culture medium [RPMI-1640 (Gibco), 10% Fetal Bovine Serum (Gibco), 2 mM GlutaMAX (Gibco) and 1 mM Sodium Pyruvate (Gibco), 100 U/mL Penicillin-Streptomycin (Gibco) and MEM non-essential amino acids (NEAA) cell culture supplement (1:100, Gibco)] was then added, mixed, and incubated at 37° C. for 5 minutes. Cells were then pelleted by centrifugation at 300 g for 5 minutes at room temperature and re-suspended in fresh, pre-warmed complete culture medium. 50 μL of cells were seeded per well in 96 well u-bottom plates. 50 μL of CD3/CD28 beads-containing medium and 50 μL of media containing compounds were added into cells. 50 μL of media containing AMP and EHNA hydrochloride (Sigma-Aldrich) was added into cells at 200 μM and 5 μM final concentration, respectively. Cells were incubated for 72 hours at 37° C. in a 5% CO2 incubator. 200 μL of PBS was then added to each well and cells were centrifuged at 300 g, 4° C. for 10 minutes. The supernatant was discarded. 50 μL of Human TruStain FcX™ (Fc Receptor Blocking Solution, BioLegend) diluted 1:100 in PBS was added to each well, mixed gently and incubated for 20 minutes at 4° C. 50 μL of staining solution (BioLegend) was added to each well, mixed gently and incubated at 4° C. for 30 minutes. Cells were centrifuged at 300 g, 4° C. for 10 minutes and the supernatant was discarded. The cell pellets were washed with 250 μL of cell staining buffer and centrifuged at 300 g, 4° C. for 10 minutes. The supernatant was discarded and cells were re-suspended in 60 μL of cell staining buffer and analyzed on a flow cytometer.

Experiment [3] relates to CD8+ T cells. Nature of the experiment: T Cell Proliferation Assay: CD8+ T cell proliferation. Format: cell-based. Conditions: high AMP condition (200 μM AMP, 5 μM EHNA), CD3/CD28 beads, 72 hours, read-out: CD8+ T cell proliferation EC50 (rescue of proliferation). On the procedure: as §1
Experiment [4] concerns the target T1, CD73. Nature of the experiment: CD73 Cellular Assay. Format: cell-based. Also noted: 40 μL of MDA-MB-231 cells (ATCC, HTB-26, breast cancer); host or cells: MDA-MB-231. The conditions noted are these: MDA-MB-231 cells; 200 μM AMP working solution; 45 min at 37° C.; malachite readout; read-out: Cellular IC50 against CD73. On the procedure: Compound serial dilution (1:3) was prepared with Echo 555 liquid handler (Labcyte) into the corresponding wells of a 384-well plate. 40 μL of MDA-MB-231 cells (ATCC, HTB-26, breast cancer, final concentration at 20,000 cells/mL) suspended in assay buffer (20 mM HEPES pH 7.4, 137 mM NaCl, 5.4 mM KCl, 1.3 mM CaCl2, 4.2 mM NaHCO3, 1 mg/mL glucose) were added into the corresponding wells of the plate. After incubating with compounds for 30 minutes, 40 μL of AMP working solution (200 μM AMP in assay buffer) was added into each well in the assay plate. The assay plate was then incubated in a 5% CO2 incubator (Thermo Fisher Scientific) at 37° C. for 45 min. After the reaction was completed, 50 μL of the supernatants was collected and transferred into a new 384 well plate. 10 μL of Malachite A was added to each well in the assay plate and incubated for 10 minutes. 10 μL of Malachite B was then added to each corresponding well of the plate and incubated for 30 minutes. Finally the absorbance value was read on the Envision plate reader at […]. Calculation percentage inhibition by using equation {% inhibition=100×[1−(X−MIN)/(MAX−MIN)]} where X equals to the well signal, Max equals signal of neutral control and MIN equals signal of inhibitor control.

The term IC50 denotes the midpoint of a concentration-inhibition curve. Take `Cn1nc(O[C@H](c2cc(OCC(F)(F)F)ncn2)C(F)F)c2cc(-c3c[nH]c(=O)[nH]c3=O)nnc21` (single isomer, unassigned) [Example 35A]: the IC50 in experiment [1] amounted to 0.06 nM; in experiment [4] it was 0.59 nM. In addition, the EC50 in experiment [2] came out at 0.3 nM; in experiment [3], 0.32 nM.

On to `Cn1nc(O[C@H](c2ccnc(COC3CC3)c2)C(F)F)c2cc(-c3c[nH]c(=O)[nH]c3=O)nnc21` [Example 2, 5-[3-[(1R)-1-[2-(cyclopropoxymethyl)-4-pyridyl]-2,2-difluoro-ethoxy]-1-methyl-pyrazolo[3,4-c]pyridazin-5-yl]-1H-pyrimidine-2,4-dione], for which the IC50 in experiment [1] is 0.07 nM; in experiment [4], 0.21 nM. The EC50 in experiment [2] came to 0.18 nM; in experiment [3], 0.17 nM.

For `Cn1nc(O[C@H](c2cc(OCC(F)(F)F)ccn2)C(F)F)c2cc(-c3c[nH]c(=O)[nH]c3=O)nnc21` [Example 4, 5-[3-[(1R)-2,2-difluoro-1-[4-(2,2,2-trifluoroethoxy)-2-pyridyl]ethoxy]-1-methyl-pyrazolo[3,4-c]pyridazin-5-yl]-1H-pyrimidine-2,4-dione], the half-maximal inhibitory concentration (IC50) in experiment [1] worked out at 0.07 nM; in experiment [4] it was 0.49 nM. Moreover, the values for the EC50 in experiment [2] and in experiment [3] were 0.18 nM and 0.22 nM, respectively.

Regarding `Cn1nc(O[C@H](c2ccnc(OCC(F)(F)F)c2)C(F)F)c2cc(-c3c[nH]c(=O)[nH]c3=O)nnc21` [Example 10, 5-[3-[(1R)-2,2-difluoro-1-[2-(2,2,2-trifluoroethoxy)-4-pyridyl]ethoxy]-1-methyl-pyrazolo[3,4-c]pyridazin-5-yl]-1H-pyrimidine-2,4-dione], the concentration for half-maximal inhibition (IC50) in experiment [1] is 0.06 nM; in experiment [4], 0.55 nM. In addition, the results for the EC50 in experiment [2] and in experiment [3] were 0.14 nM and 0.08 nM, respectively.

For the compound `Cn1nc(O[C@H](c2ccnc(OCC(F)F)c2)C(F)F)c2cc(-c3c[nH]c(=O)[nH]c3=O)nnc21` [Example 11B, 5-[3-[(1R)-1-[2-(2,2-difluoroethoxy)-4-pyridyl]-2,2-difluoro-ethoxy]-1-methyl-pyrazolo[3,4-c]pyridazin-5-yl]-1H-pyrimidine-2,4-dione], the half-maximal inhibitory concentration (IC50) in experiment [1] was 0.05 nM; in experiment [4] it was 0.72 nM. Besides, the EC50 is 0.24 nM in experiment [2] and 0.29 nM in experiment [3].

For the compound `Cn1nc(O[C@H](c2ccnc(OCC(F)(F)F)c2)C(F)F)c2cc(-c3n[nH]c(=O)[nH]c3=O)nnc21` [Example 12, 6-[3-[(1R)-2,2-difluoro-1-[2-(2,2,2-trifluoroethoxy)-4-pyridyl]ethoxy]-1-methyl-pyrazolo[3,4-c]pyridazin-5-yl]-2H-1,2,4-triazine-3,5-dione], the IC50 in experiment [1] was determined as 0.02 nM; in experiment [4] it was 0.67 nM. For the same compound, the EC50 in experiment [2] turned out to be 0.15 nM; in experiment [3], 0.12 nM.

`Cn1nc(O[C@H](c2ccc3cnn(CC(F)(F)F)c3c2)C(F)F)c2cc(-c3c[nH]c(=O)[nH]c3=O)nnc21` [Example 24, 5-[3-[(1R)-2,2-difluoro-1-[1-(2,2,2-trifluoroethyl)indazol-6-yl]ethoxy]-1-methyl-pyrazolo[3,4-c]pyridazin-5-yl]-1H-pyrimidine-2,4-dione]: the IC50 in experiment [1] was 0.05 nM; in experiment [4], 0.44 nM. Also, the EC50 in experiment [2] was 0.19 nM; in experiment [3] it was 0.23 nM.

`C[C@H](Nc1cc([C@@H](Oc2nn(C)c3nnc(-c4c[nH]c(=O)[nH]c4=O)cc23)C(F)F)ccn1)C(F)(F)F` [Example 26, 5-[3-[(1R)-2,2-difluoro-1-[2-[[(1S)-2,2,2-trifluoro-1-methyl-ethyl]amino]-4-pyridyl]ethoxy]-1-methyl-pyrazolo[3,4-c]pyridazin-5-yl]-1H-pyrimidine-2,4-dione]: the IC50 in experiment [1] stood at 0.04 nM; in experiment [4], 0.27 nM. Moreover, the EC50 in experiment [2] was 0.08 nM; in experiment [3], 0.09 nM.

Take `O=c1[nH]cc(-c2cc(N3C[C@H](Oc4ncc(C(F)(F)F)cn4)C(F)(F)C3)c3nccn3n2)c(=O)[nH]1` [Example G351, reference compound]: the EC50 was determined as 8.8 nM in experiment [2] and 8.2 nM in experiment [3]. In addition, in experiment [4], the IC50 was 3.53 nM.
